Article PMC3776224, “Investigation of acyclic uridine amide and 5′-amido nucleoside analogues as potential inhibitors of the Plasmodium falciparum dUTPase^” (Bioorganic & Medicinal Chemistry, 2013)
Like-named read-outs stand apart in the source and are kept apart here. One block for each compound: values may come before it.

Columns and labels:
[1] = system: L6 cells (rat skeletal myoblast cells); test: Cytotoxicity on rat L6 myoblasts; type: cell-based
Description: (§1) Activity against P. falciparum K1 strain and cytotoxicity assessment against L6 cells (rat skeletal myoblast cells) was determined as previously reported.[9]

[2] = system: P. falciparum K1, a chloroquine and pyrimethamine resistant strain; test: In vitro antiplasmodial activity, parasites cultured in erythrocytes; type: cell-based; settings: Plasmodium falciparum, Erythrocyte, mean of two independent assays, read-out: In vitro assays, EC50 P.fal.
Description: (§2) Biological activity was evaluated by testing all compounds against the recombinant PfdUTPase and human dUTPase (HsdUTPase) in order to determine inhibition constants and selectivity.
as §1

recombinant PfdUTPase [3] = molecular target: T1, recombinant PfdUTPase (Plasmodium falciparum, UniProt Q8II92); test: PfdUTPase enzyme inhibition assay (dUTP hydrolysis, Ki); type: biochemical; settings: for Ki: read-out: Enzyme assay, Ki P.fal
T1 construct: made in house; host or cells: E. coli BL21 (DE3)
T1 sequence (Q8II92 1-173): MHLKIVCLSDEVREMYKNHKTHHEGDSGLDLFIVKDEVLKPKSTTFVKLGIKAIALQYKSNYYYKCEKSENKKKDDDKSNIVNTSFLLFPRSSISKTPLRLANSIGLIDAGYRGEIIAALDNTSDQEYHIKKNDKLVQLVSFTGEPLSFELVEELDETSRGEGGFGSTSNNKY
Description: as §2
Both recombinant P. falciparum and human dUTPases were expressed in E. coli BL21 (DE3) cells which had been transformed with the pET11Pfdut and pET3Hudut (kindly provided by P.O. Nyman, Lund University, Sweden) expression vectors, respectively. For dUTPase purification, the same procedure was used for both the human and the Plasmodium enzymes. Cell pellets from a 2.8 L IPTG-induced culture were resuspended in 70 mL of buffer A (20 mM MES, 50 mM NaCl, 1 mM DTT, pH 5.5) containing a protease inhibitor cocktail. The cells were lysed by sonication, and the cell extract was cleared by centrifugation at 14,000 rpm for 30 min. The supernatant was loaded onto a 40 mL phosphocellulose (Whatman P-11) column at 4 °C and eluted with a 50 mM to 1 M NaCl gradient in buffer A. Protein was further purified by gel filtration chromatography on a Superdex 200 HA 10/30 column at 4 °C. Pooled fractions were concentrated by centrifugation at 4 °C and desalted using a PD-10 column. The enzyme was stored in 10 mM bicine and 5 mM MgCl2, pH 8 at −80 °C.
(§3) Nucleotide hydrolysis was monitored by mixing enzyme and substrate with a rapid kinetic accessory (Hi-Tech Scientific) attached to a spectrophotometer (Cary 50) and connected to a computer for data acquisition and storage as described previously.[17] Protons, released through the hydrolysis of nucleotides, were neutralized by a pH indicator in weak buffered medium with similar pKa and monitored spectrophotometrically at the absorbance peak of the basic form of the indicator. The ratio between the indicator and the buffer concentration was 50:[…], and the absorbance changes were kept within 0.1 units. The indicator/buffer pair used was red cresol/bicine (pH 8, 573 nm). Assay mixes contained 30 nM PfdUTPase, 50 μM dUTP, 5 mM MgCl2, 1 mg/mL BSA, and 100 mM KCl. Vmax and KMapp were calculated by fitting the resulting data to the integrated Michaelis–Menten equation.

[4] = system: L6 cells (rat skeletal myoblast cells); settings: previously reported, cited from earlier work; for EC50: cytotoxicity on rat L6 myoblasts, mean of two independent assays, read-out: In vitro assays EC50 L6 cells
[5] = system: P. falciparum K1, a chloroquine and pyrimethamine resistant strain; settings: mean of two independent assays, previously reported, read-out: In vitro assays EC50 P.f.; cited from earlier work
[6] = molecular target: T2, human dUTPase (HsdUTPase) (Homo sapiens, UniProt P33316); settings: previously reported; read-out: Enzyme assay Ki HsdUTPase; cited from earlier work
T2 construct: made in house; host or cells: E. coli BL21 (DE3)
T2 sequence (P33316 112-252 limits assumed): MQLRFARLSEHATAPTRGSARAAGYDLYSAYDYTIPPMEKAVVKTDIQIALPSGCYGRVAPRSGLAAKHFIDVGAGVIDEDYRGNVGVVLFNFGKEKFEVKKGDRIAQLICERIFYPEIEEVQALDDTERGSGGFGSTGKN

[7] = molecular target: T2, human dUTPase (HsdUTPase); test: Human dUTPase enzyme inhibition assay (dUTP hydrolysis, Ki); type: biochemical; settings: recombinant human dUTPase; read-out: Enzyme assay, Ki H. sap.
Description: as §2
Both recombinant P. falciparum and human dUTPases were expressed in E. coli BL21 (DE3) cells which had been transformed with the pET11Pfdut and pET3Hudut (kindly provided by P.O. Nyman, Lund University, Sweden) expression vectors, respectively. For dUTPase purification, the same procedure was used for both the human and the Plasmodium enzymes. Cell pellets from a 2.8 L IPTG-induced culture were resuspended in 70 mL of buffer A (20 mM MES, 50 mM NaCl, 1 mM DTT, pH 5.5) containing a protease inhibitor cocktail. […]
as §3, with “The indicator/buffer pair used was red cresol/bicine (pH 8, 573 nm). Assay mixes contained 30 nM PfdUTPase, 50 μM dUTP, 5 mM MgCl2, 1 mg/mL BSA, and 100 mM KCl. Vmax and KMapp were calculated by fitting the resulting data to the integrated Michaelis–Menten equation.” left out

recombinant PfdUTPase [8] = molecular target: T1, recombinant PfdUTPase; settings: previously reported; cited from earlier work
[9] = cytotoxicity on rat L6 myoblasts, mean of two independent assays, read-out: In vitro assays, EC50 L6 cells (Tox)
[10] = recombinant PfdUTPase, 50 μM dUTP, pH 8

SMILES: O=C(NCCCO)C(c1ccccc1)(c1ccccc1)c1ccccc1 [Compound 4, N-(3-Hydroxypropyl)-2,2,2-triphenylacetamide]
Cell selectivity index (SI) [EC50 L6/EC50 P. falciparum] [1]: 1.9 | EC50 [1, 9]: 19 µM | EC50 [2]: 9.8 µM | Ki (recombinant PfdUTPase [3]; [10]): 1000 µM

SMILES: O=c1ccn(CCCCOC(c2ccccc2)(c2ccccc2)c2ccccc2)c(=O)[nH]1 [Compound 1b]
EC50 [4]: 42 µM | EC50 [5]: 4.9 µM | Ki [6]: > 1 mM

SMILES: O=c1ccn(CCCNC(c2ccccc2)(c2ccccc2)c2ccccc2)c(=O)[nH]1 [Compound 1e]
EC50 [4]: 107 µM | EC50 [5]: 4.4 µM

SMILES: O=c1ccn(CCCCCNC(c2ccccc2)(c2ccccc2)c2ccccc2)c(=O)[nH]1 [Compound 1g]
EC50 [4]: 39 µM | EC50 [5]: 2.2 µM | Ki [6]: > 1 mM

SMILES: O=C(NC(c1ccccc1)c1ccccc1)[C@H]1O[C@@H](n2ccc(=O)[nH]c2=O)C[C@@H]1O [Compound 17, 2′,5′-Dideoxyuridine-5′-N-benzhydryl carboxamide]
EC50 [1, 9]: > 90 µM | Ki [7]: > 100 µM | EC50 [2]: > 5 µM | Selectivity index (SI) for enzyme [KiHsdUTPase/KiPfdUTPase] (recombinant PfdUTPase [3]): >12 | Ki (recombinant PfdUTPase [3]; [10]): 8.3 µM

SMILES: O=c1ccn([C@H]2C[C@H](O)[C@@H](CNC(c3ccccc3)c3ccccc3)O2)c(=O)[nH]1 [Compound 2c]
EC50 [4]: > 229 µM

Ki (recombinant PfdUTPase [3]; [10]): 0.2 µM
SMILES: O=C(CCCn1ccc(=O)[nH]c1=O)NC(c1ccccc1)(c1ccccc1)c1ccccc1 [Compound 12, 1-[3-(Tritylaminocarbonyl)propyl]uracil]

melting point: 154 to 156 °C | Ki (recombinant PfdUTPase [3]; [10]): 6.3 µM
SMILES: O=C(NCCCn1ccc(=O)[nH]c1=O)C(c1ccccc1)(c1ccccc1)c1ccccc1 [Compound 8, 1-(3-(Triphenylacetylamino)propyl)uracil]

SMILES: O=c1ccn([C@H]2C[C@H](O)[C@@H](COC(c3ccccc3)(c3ccccc3)c3ccccc3)O2)c(=O)[nH]1 [Compound 2a]
EC50 [4]: 192 µM | Cell selectivity index (SI) [EC50 L6/EC50 P. falciparum] [4]: 32 | EC50 [5]: 6 µM | Selectivity index (SI) for enzyme [KiHsdUTPase/KiPfdUTPase] (recombinant PfdUTPase [8]): 10

SMILES: O=c1ccn(CCCCCCOC(c2ccccc2)(c2ccccc2)c2ccccc2)c(=O)[nH]1 [Compound 1d]
EC50 [4]: 44 µM | EC50 [5]: 2.3 µM

Ki (recombinant PfdUTPase [3]; [10]): 0.7 µM
SMILES: O=C(CCCn1ccc(=O)[nH]c1=O)NC(c1ccccc1)c1ccccc1 [Compound 11, 1-[3-(Benzhydrylaminocarbonyl)propyl]uracil]

SMILES: O=c1ccn([C@H]2C[C@H](O)[C@@H](CNC(c3ccccc3)(c3ccccc3)c3ccccc3)O2)c(=O)[nH]1 [Compound 2b]
EC50 [5]: 4.5 µM | Selectivity index (SI) for enzyme [KiHsdUTPase/KiPfdUTPase] (recombinant PfdUTPase [8]): 232

SMILES: O=C(O)CCCn1ccc(=O)[nH]c1=O [Compound 10, 1-(Carboxypropyl)uracil]
Cell selectivity index (SI) [EC50 L6/EC50 P. falciparum] [1]: 0.7 | EC50 [1, 9]: 18 µM | EC50 [2]: 25 µM | melting point: 174 to 176 °C | Enzyme assay, Ki P.fal (recombinant PfdUTPase [3]; [10]): low affinity | Ki (recombinant PfdUTPase [3]; [10]): > 100 µM

SMILES: O=c1ccn(CCCOC(c2ccccc2)(c2ccccc2)c2ccccc2)c(=O)[nH]1 [Compound 1a]
EC50 [4]: 34 µM | EC50 [5]: 7.5 µM | Selectivity index (SI) for enzyme [KiHsdUTPase/KiPfdUTPase] (recombinant PfdUTPase [8]): 4

SMILES: O=C(NCCCn1ccc(=O)[nH]c1=O)C(c1ccccc1)c1ccccc1 [Compound 7, 1-(3-(Diphenylacetylamino)propyl)uracil]
Cell selectivity index (SI) [EC50 L6/EC50 P. falciparum] [1]: 1.3 | EC50 [1, 9]: 18 µM | Ki [7]: 286 µM | EC50 [2]: 14 µM | melting point: 145 to 147 °C | Selectivity index (SI) for enzyme [KiHsdUTPase/KiPfdUTPase] (recombinant PfdUTPase [3]): 26 | Ki (recombinant PfdUTPase [3]; [10]): 11 µM

SMILES: O=c1ccn(CCCCCOC(c2ccccc2)(c2ccccc2)c2ccccc2)c(=O)[nH]1 [Compound 1c]
EC50 [4]: 24 µM | EC50 [5]: 1.1 µM | Ki [6]: > 1 mM

SMILES: O=C(NCCCO)C(c1ccccc1)c1ccccc1 [Compound 3, N-(3-Hydroxypropyl)-2,2-diphenylacetamide]
Cell selectivity index (SI) [EC50 L6/EC50 P. falciparum] [1]: 1.0 | EC50 [1, 9]: 18 µM | EC50 [2]: 19 µM | Ki (recombinant PfdUTPase [3]; [10]): > 100 µM

SMILES: O=c1ccn(CCCCNC(c2ccccc2)(c2ccccc2)c2ccccc2)c(=O)[nH]1 [Compound 1f]
EC50 [4]: 33 µM | EC50 [5]: 3.8 µM | Selectivity index (SI) for enzyme [KiHsdUTPase/KiPfdUTPase] (recombinant PfdUTPase [8]): >1111 | Ki [6]: > 1 mM

SMILES: O=C(c1ccccc1)n1c(=O)ccn(CCCNC(=O)C(c2ccccc2)(c2ccccc2)c2ccccc2)c1=O [Compound 6, 3-Benzoyl-(1-(3-(triphenylacetylamino)propyl)uracil)]
Cell selectivity index (SI) [EC50 L6/EC50 P. falciparum] [1]: 1.4 | EC50 [1, 9]: 9 µM | EC50 [2]: 6.7 µM | Ki (recombinant PfdUTPase [3]; [10]): > 100 µM

SMILES: COc1cc([C@@H]2c3cc4c(cc3[C@H](O)[C@H]3COC(=O)[C@H]23)OCO4)cc(OC)c1OC [podophyllotoxin, reference compound]
EC50 ([1]; Rattus norvegicus, L6, read-out: In vitro assays, EC50 L6 cells (Tox)): 0.012 µM

SMILES: O=c1ccn(CCCCCCNC(c2ccccc2)(c2ccccc2)c2ccccc2)c(=O)[nH]1 [Compound 1h]
EC50 [4]: 40 µM | EC50 [5]: 1.1 µM | Selectivity index (SI) for enzyme [KiHsdUTPase/KiPfdUTPase] (recombinant PfdUTPase [8]): >556 | Ki [6]: > 1 mM
